In patent publication US20260078341A1, “TREATMENT OF CANCER USING CHIMERIC ANTIGEN RECEPTOR” (Novartis AG, priority 2014, published 2026):
Where two headings read alike, the source gives them in different places. Marks after values point to notes of the source that are not given here.

Assays:
Format in all cases: in vivo, human
[1] = test system: A/H1N1/California/07/2009; experiment: Anti-influenza IgG and IgM levels in serum; conditions: 4 weeks after influenza vaccination
Experimental: The trial was observer-blind because the placebo in the RAD001 0.5 mg daily and 20 mg weekly cohorts differed slightly from the RAD001 tablets in those cohorts. […] The treatment duration for all cohorts was 6 weeks during which time subjects underwent safety evaluations in the clinic every 2 weeks. After subjects had been dosed for 4 weeks, RAD001 steady state levels were measured pre-dose and at one hour post dose. […] Antibody titers to the 3 influenza vaccine strains as well as to 2 heterologous strains (A/H1N1 strain A/New Jersy/8/76 and A/H3N2 strain A/Victoria/361/11) were measured by standard hemagglutination inhibition assay (Kendal, A P et al. (1982) Concepts and procedures for laboratory-based influenza surveillance. Atlanta: Centers for Disease Control and Prevention B17-B35). Levels of IgG and IgM specific for the A/H1N1/California/07/2009 were measured in serum samples taken before and 4 weeks after influenza vaccination as described previously (Spensieri, F. et al. (2013) Proc. Natl. Acad. Sci. USA 110:14330-14335). Results were expressed as fluorescence intensity.

[2] = test system: H1N1 A/California/07/2009; experiment: Hemagglutination inhibition titers after influenza vaccination, A/H1N1 vaccine strain; conditions: for HI GMT ratio (CV %) A/H1N1: GMT at week 4 post vaccination/GMT at baseline
Experimental: (§1) The trial was observer-blind because the placebo in the RAD001 0.5 mg daily and 20 mg weekly cohorts differed slightly from the RAD001 tablets in those cohorts. […] The treatment duration for all cohorts was 6 weeks during which time subjects underwent safety evaluations in the clinic every 2 weeks. After subjects had been dosed for 4 weeks, RAD001 steady state levels were measured pre-dose and at one hour post dose. After completing the 6 week course of study drug, subjects were given a 2 week drug free break to reverse any possible RAD001-induced immunosuppression, and then were given a 2012 seasonal influenza vaccination (Agrippal®, Novartis Vaccines and Diagnostics, Siena, Italy) containing the strains H1N1 A/California/07/2009, H3N2 A/Victoria/210/2009, B/Brisbane/60/2008. Four weeks after influenza vaccination, subjects had serum collected for influenza titer measurements. Antibody titers to the 3 influenza vaccine strains as well as to 2 heterologous strains (A/H1N1 strain A/New Jersy/8/76 and A/H3N2 strain A/Victoria/361/11) were measured by standard hemagglutination inhibition assay (Kendal, A P et al. (1982) Concepts and procedures for laboratory-based influenza surveillance. Atlanta: Centers for Disease Control and Prevention B17-B35). Levels of IgG and IgM specific for the A/H1N1/California/07/2009 were measured in serum samples taken before and 4 weeks after influenza vaccination as described previously (Spensieri, F. et al. (2013) Proc. Natl. Acad. Sci. USA 110:14330-14335). Results were expressed as fluorescence intensity.
(§2) The primary analysis of geometric mean titer ratios was done using a normal Bayesian regression model with non-informative priors. This model was fitted to each antibody titer on the log scale. The primary outcome in each model was the Day 84 measurement. The Day 63 measurement was included in the outcome vector. The model fitted using SAS 9.2 proc mixed with the prior statement. The covariance structure of the matrix was considered as unstructured (option type=UN). A flat prior was used. For the secondary analysis of seroconversion rates, logistic regression was used.
(§3) The ability of RAD001 to improve immune function in elderly volunteers was evaluated by measuring the serologic response to the 2012 seasonal influenza vaccine. The hemagglutination inhibition (HI) geometric mean titers (GMT) to each of the 3 influenza vaccine strains at baseline and 4 weeks after influenza vaccination are provided in Table 6. The primary analysis variable was the HI GMT ratio (4 weeks post vaccination/baseline). […] This endpoint was chosen because a 1.2-fold increase in the influenza GMT ratio induced by the MF-59 vaccine adjuvant was associated with a decrease in influenza illness (Iob, A et al. (2005) Epidemiol Infect 133:687-693).
(§4) Rates of seroconversion 4 weeks after influenza vaccination were also evaluated. Seroconversion was defined as the change from a negative pre-vaccination titer (i.e., HI titer <1:10) to post-vaccination HI titer ≥1:40 or at least 4-fold increase from a non-negative (>1:10) pre-vaccination HI titer.

B/Brisbane/60/2008 = experiment: Hemagglutination inhibition titers after influenza vaccination, B vaccine strain; conditions: for HI GMT ratio (CV %) B: GMT at week 4 post vaccination/GMT at baseline
Experimental: as §1, §2, §3, §4

[3] = test system: A/H1N1 strain A/New Jersey/8/76; conditions: 4 weeks after seasonal influenza vaccination
[4] = Baseline (2 weeks prior to influenza vaccination), RAD001 0.5 mg daily
[5] = Baseline (2 weeks prior to influenza vaccination), RAD001 5 mg weekly
[6] = Baseline (2 weeks prior to influenza vaccination), RAD001 20 mg weekly
[7] = Intention to Treat Population, 0.5 mg
[8] = Intention to Treat Population, 5 mg
[9] = Intention to Treat Population, 20 mg
[10] = Subjects with Baseline Titers <=40, 0.5 mg
[11] = Subjects with Baseline Titers <=40, 5 mg
[12] = Subjects with Baseline Titers <=40, 20 mg
[13] = Week 4 after influenza vaccination, RAD001 0.5 mg daily
[14] = Week 4 after influenza vaccination, RAD001 5 mg weekly
[15] = Week 4 after influenza vaccination, RAD001 20 mg weekly

Which “post-vaccination anti-influenza IgM and IgG levels, RAD001 versus placebo” value [1] does the source give for CO[C@H]1C[C@@H]2CC[C@@H](C)[C@@](O)(O2)C(=O)C(=O)N2CCCC[C@H]2C(=O)O[C@H]([C@H](C)C[C@@H]2CC[C@@H](OCCO)[C@H](OC)C2)CC(=O)[C@H](C)/C=C(\C)[C@@H](O)[C@@H](OC)C(=O)[C@H](C)C[C@H](C)/C=C/C=C/C=C/1C [RAD001, (1R,9S,12S,15R,16E,18R,19R,21R,23S,24E,26E,28E,30S,32S,35R)-1,18-dihydroxy-12-{(1R)-2-[(1S,3R,4R)-4-(2-hydroxyethoxy)-3-methoxycyclohexyl]-1-methylethyl}-19,30-dimethoxy-15,17,21,23,29,35-hexamethyl-11,36-dioxa-4-azatricyclo[30.3.1.0^4,9]hexatriaconta-16,24,26,28-tetraene-2,3,10,14,20-pentaone] here?
The value was “did not differ”.

What about the “HI GMT (CV %) A/H1N1” value [2, 4] of the same compound?
The value was 102.8 (186.9).

What about the “HI GMT (CV %) A/H1N1” value [2, 5] of the same compound?
Its value is 84.2 (236.4).

And the “HI GMT (CV %) A/H1N1” value [2, 6]?
The value was 90.1 (188.4).

And the “HI GMT ratio (CV %) A/H1N1” value ([2]; RAD001 0.5 mg daily)?
The value was 2.6 (302.5).

What about the “HI GMT ratio (CV %) A/H1N1” value ([2]; RAD001 5 mg weekly) of the same compound?
Its value is 2.5 (214.3).

And the “HI GMT ratio (CV %) A/H1N1” value ([2]; RAD001 20 mg weekly)?
Its value is 1.8 (201.5).

And the “Percent of subjects with seroconversion to influenza 4 weeks after vaccination, H1N1” value (shortened to “Percent of subjects with seroconversion … H1N1”) [2, 7]?
Its value is 27%.

And the “Percent of subjects with seroconversion … H1N1” value [2, 8]?
The value was 27%.

What about the “Percent of subjects with seroconversion … H1N1” value [2, 9] of the same compound?
The value was 17%.

And the “Percent of subjects with seroconversion … H1N1” value [2, 10]?
The value was 42%.

And the “Percent of subjects with seroconversion … H1N1” value [2, 11]?
The value was 45%.

And the “Percent of subjects with seroconversion … H1N1” value [2, 12]?
The value was 36%.

And the “HI GMT (CV %) A/H1N1” value [2, 13]?
Its value is 190.2 (236.9).

What about the “HI GMT (CV %) A/H1N1” value [2, 14] of the same compound?
Its value is 198.73(195.6).

What about the “HI GMT (CV %) A/H1N1” value [2, 15] of the same compound?
Its value is 129.7 (175.9).

What about the “HI GMT (CV %) B” value (B/Brisbane/60/2008; [4]) of the same compound?
The value was 44.2 (96.6).

And the “HI GMT (CV %) B” value (B/Brisbane/60/2008; [5])?
Its value is 64.8 (87.3).

What about the “HI GMT (CV %) B” value (B/Brisbane/60/2008; [6]) of the same compound?
The value was 58.0 (156.0).

And the “HI GMT ratio (CV %) B” value (B/Brisbane/60/2008; RAD001 0.5 mg daily)?
The value was 2.5 (111.2).

And the “HI GMT ratio (CV %) B” value (B/Brisbane/60/2008; RAD001 5 mg weekly)?
Its value is 2.2 (112.8).

And the “HI GMT ratio (CV %) B” value (B/Brisbane/60/2008; RAD001 20 mg weekly)?
Its value is 2.1 (126.5).

And the “Percent of subjects with seroconversion to influenza 4 weeks after vaccination, B” value (shortened to “Percent of subjects … after vaccination, B”) (B/Brisbane/60/2008; [7])?
The value was 27%.

And the “Percent of subjects … after vaccination, B” value (B/Brisbane/60/2008; [8])?
The value was 22%.

What about the “Percent of subjects … after vaccination, B” value (B/Brisbane/60/2008; [9]) of the same compound?
Its value is 19%.

And the “Percent of subjects … after vaccination, B” value (B/Brisbane/60/2008; [10])?
The value was 40* Percent.

And the “Percent of subjects … after vaccination, B” value (B/Brisbane/60/2008; [11])?
The value was 33%.

And the “Percent of subjects … after vaccination, B” value (B/Brisbane/60/2008; [12])?
Its value is 28%.

And the “HI GMT (CV %) B” value (B/Brisbane/60/2008; [13])?
The value was 98.4 (94.8).

And the “HI GMT (CV %) B” value (B/Brisbane/60/2008; [14])?
The value was 117.3 (99.9).

And the “HI GMT (CV %) B” value (B/Brisbane/60/2008; [15])?
Its value is 99.2 (124.1).

What about the “Percentage of subjects who seroconvert to heterologous strain A/H1N1 A/NewJersey/8/76” value ([3]; RAD001 5 mg weekly) of the same compound?
The value was 16%.

And the “Percentage of subjects who seroconvert to heterologous strain A/H1N1 A/NewJersey/8/76” value ([3]; RAD001 20 mg weekly)?
The value was 8%.
